In patent US11679099B2, “Use of HIF-2α inhibitors for treating chondrosarcoma, or preventing recurrence and metastasis thereof” (SEOUL NATIONAL UNIVERSITY R&DB FOUNDATION, priority 2020, dated 2023):
Entries after “also recorded” stand apart in the source; their conditions may differ.

Assays:
HIF-2α [1] = assay: siRNA knockdown of HIF-2α in SW1353 cells; format: cell-based, human; conditions: SW1353 cells transfected with siRNA
Method: Cell culture. Chondrosarcoma cell lines SW1353 and OUMS-27 were purchased from ATCC and JCRB Cell Bank, respectively, maintained in 3% O2 at 37° C., and cultured in DMEM (WelGENE Inc., LM001-05) supplemented with 10% FBS (Gibco, 26140079) and 1% antibiotics. For the selection of stable cell lines, 1×10^3 cells were seeded in 100 mm dishes and incubated for approximately two weeks until colonies became visible, and they were supplied with fresh media every three days. Visible colonies were individually isolated using cloning rings. Single colony-forming cells were trypsinized, seeded into 24-well plates, and gradually expanded to 100 mm dishes. Transfection was performed with METAFECTENE PRO (Biontex, T040) according to the manufacturer's protocol. All siRNAs were purchased from Bioneer. All cell lines were tested and authenticated using short-tandem repeat (STR) profiling by the Korean Cell Line Bank and were free of mycoplasma contamination. None of the cell line stocks used in this study was found in the database of commonly misidentified cell lines listed by ICLAC.
Microarray. SW1353 cells (3×10^5) were transfected with control, HIF1A, or EPAS1 siRNAs. Three biological replicates were used for each group. cDNA was synthesized using the GeneChip WT (Whole Transcript) Amplification kit as described by the manufacturer. […]

HIF-2α [2] = target: T1, HIF-2α (Homo sapiens, UniProt Q99814); assay: HRE reporter gene (luciferase) assay; format: cell-based; conditions: SW1353 cells co-transfected with pcDNA3-EPAS1 and HRE reporter; different doses of TC-S7009, 24 h
T1 construct: host or cells: SW1353 cells
Method: (A) SW1353 cells were co-transfected with pcDNA3 or pcDNA3-EPAS1 and the HRE containing reporter plasmid in the absence or presence of different doses of TC-S7009. HRE reporter activity was normalized to Renilla luciferase activity (n=5). […] (Scale bar, 200 μm.) Values indicate the mean±SEM, ***P<0.001, N.S., not significant, ANOVA (A-C) and Student's t test (D).
Luciferase assay. HIF-2α activity was determined by reporter gene assay. SW1353 cells were transfected with 1 μg of a reporter vector containing hypoxia responsive element repeats. The thymidine kinase promoter-Renilla luciferase reporter plasmid (pRL-TK) was used as a control for measuring transfection efficiency. […] Twenty-four hours after transfection, cells were treated with TC-S7009 for an additional 24 h. Luciferase activity was measured using luciferin and normalized by Renilla luciferase activity.

SW1353 cells [3] = assay: Trypan blue exclusion assay (cell viability); format: cell-based, human
Description: (§1) (A) SW1353 cells were co-transfected with pcDNA3 or pcDNA3-EPAS1 and the HRE containing reporter plasmid in the absence or presence of different doses of TC-S7009. HRE reporter activity was normalized to Renilla luciferase activity (n=5). (B) Trypan blue exclusion assay to test the effect of TC-S7009 on cell viability of SW1353 cells (n=3). (C) Colony formation assay of SW1353 cells in the absence or presence of different doses of TC-S7009. The number of colonies counted using the ImageJ software (n=5). (D) Migration assay performed using SW1353 cells treated with DMSO or 10 μM TC-S7009. Representative images are shown (Left), and the relative area of migration (Right) was determined using the Image-Pro Premier software (n=6). (Scale bar, 200 μm.) Values indicate the mean±SEM, ***P<0.001, N.S., not significant, ANOVA (A-C) and Student's t test (D). P values; N.S.=non-significant, ***P<0.001. HRE=hypoxia response element; P=P value.

SW1353 cells [4] = assay: Transwell invasion assay; format: cell-based, human; conditions: 10 μM TC-S7009 vs DMSO
Method: FIG. 5A is the results of Transwell invasion (n=3) assay using SW1353 cells treated with DMSO or 10 μM TC-S7009. Representative images were shown, the invaded cells were calculated on the random image fields and normalized to the cells treated with DMSO. Scale Bar=200 μm.
Transwell invasion assay. The invasion assay was performed using Transwell (BD Falcon, pore size, 8 μm, PET) in 24-well plates. Filters were coated with 20 μg of Geltrex (Thermo Fisher Scientific) in 20 μl of serum-free DMEM and dried for 4 h in a sterile environment. Prior to the invasion assay, SW1353 and OUMS-27 cells were starved for 12 h in serum-free DMEM. Immediately before seeding the cells, the dried transwells were rehydrated with 25 μl of serum-free DMEM for 1 h at 37° C. Starved cells were trypsinized, centrifuged, and resuspended in serum-free DMEM. Approximately 1×10^5 cells in 200 μl of serum-free DMEM were placed in each transwell and 2 ml of DMEM supplemented with 10% FBS was placed in each 24-well plate. The plates were incubated for 48 h at 37° C., fixed in 4% paraformaldehyde for 2 min, permeabilized in 100% methanol for 20 min, and stained with 0.1% crystal violet in 10% ethanol for 20 min. Cells on the upper side of the transwell were removed with cotton-tipped swabs. […] Image fields were randomly chosen, and invading cells were counted using the ImageJ software (National Institutes of Health).

SW1353 cells [5] = assay: Gelatin degradation assay; format: cell-based, human; conditions: 10 μM TC-S7009 vs DMSO
Method: Gelatin degradation assay. SW1353 cells were seeded on coverslips coated with Oregon Green 488-conjugated gelatin (Life Technologies) at 4×10^4 cells per well. Briefly, coverslips were treated with 50 μg/ml poly-D-Lysine (Corning) for 20 min followed by 0.5% glutaraldehyde (Junsei Chemical) for 15 min on ice. Treated coverslips were coated at 37° C. with pre-warmed 200 μg/ml Oregon Green 488-conjugated gelatin for 10 min in the dark, treated with 5 mg/ml NaBH4 for 15 min, and extensively washed with 70% ethanol and PBS. Cells were incubated for 18 h after seeding. For imaging gelatin degradation, cells were fixed with 50% methanol (v/v) and 10% acetic acid (v/v) solution for 10 min and stained with DAPI. For each coverslip, three fields were imaged at 20× magnification using a fluorescence microscope (EVOS FL Cell Imaging System, Thermo Fisher Scientific). To quantify gelatin degradation, the area of degradation in each field was measured by color-thresholding, using the ImageJ software.

SW1353 cells [6] = assay: Sphere formation assay; format: cell-based, human; conditions: 10 μM TC-S7009 vs DMSO
Method: FIG. 5C is the results of sphere formation (n=3) assays using SW1353 cells treated with DMSO or 10 μM TC-S7009 assay using SW1353 cells treated with DMSO or 10 μM TC-S7009. The representative images were shown and the diameter of the spheres were measured. Box-whisker plot were used to present the data. Scale Bar=200 μm.
Sphere formation assay. SW1353 and OUMS-27 cells were suspended in DMEM-F12 medium supplemented with 2% of B27 supplement (Thermo Fisher Scientific), 20 ng/ml EGF (Invitrogen), and 20 ng/ml basic fibroblast growth factor (bFGF; Peprotech). For experiments using SW1353 cells overexpressing eGFP or HIF-2α, cells were suspended in DMEM-F12 medium in the absence of the above supplements. Cells were then seeded in 24-well Ultra-low attachment plates (Corning) at a density of 1×10^4 cells per well. Four days later, fresh medium was added in each well. Seven days later, spheres were analyzed by the sphere diameter and the number of spheres larger than 50 μm (Axio Observer Z1, Zeiss). In relation to the diameter of the spheres, three representative fields per well were imaged, and diameters were measured using the AxioVision software (Zeiss): the three longest diameters per image field for each group were recorded. The distribution of the sphere diameters was plotted using the notched Box-and-Whisker plot originally invented by Tukey. […]

SW1353 cells [7] = assay: Colony formation assay; format: cell-based, human; conditions: 10 μM or different doses of TC-S7009 vs DMSO
Method: FIG. 5D is the results of colony formation (P<0.001, n=5) assays using SW1353 cells treated with DMSO or 10 μM TC-S7009 assay using SW1353 cells treated with DMSO or 10 μM TC-S7009. The representative images and quantification results were shown.
as §1
Colony formation assay. SW1353 cells were suspended in DMEM supplied with 10% FBS and seeded in 6-well plates; 1×10^3 and 500 cells were seeded in each well for the knockdown and overexpression experiments, respectively. […]

SW1353 cells [8] = assay: Migration assay; format: cell-based, human; conditions: 10 μM TC-S7009 vs DMSO
Description: as §1
Migration assay. SW1353 and OUMS-27 cells were cultured in a 6-well plate at a density of 5×10^5 cells per well. When cells achieved 90% confluence, a wound was made with a sterile yellow tip. Cells were washed with PBS three times and incubated in fresh media with 1% FBS for 36 h. Every 12 h, randomly selected fields were captured by a digital camera under a microscope.

SW1353 cells [9] = assay: Apoptosis analysis, Annexin-V/PI flow cytometry; format: cell-based, human; conditions: 10 μM TC-S7009 pretreatment 48 h and/or 5 μg/ml cisplatin 24 h
Method: Drug Interaction Studies. For analysis of combination index (CI), SW1353 cells were pretreated with vehicle, 10 μM Nutlin-3a, 10 μM ABT-888, or 10 μM TC-S7009 for 48 h and additionally treated with 0.2, 0.5, 1, 2, or 5 μg/ml cisplatin or left untreated for 72 h. Cell viability was measured by the MTT assay. CI was calculated using the Compusyn software version 1.0, and synergistic effects were determined by the Chou-Talalay method (Chou T C. Drug Combination Studies and Their Synergy Quantification Using the Chou-Talalay Method. Cancer Res. 2010; 70(2):440-446). Drug combination at a non-constant ratio was used to calculate CI. For apoptosis analysis, SW1353 cells were pretreated with vehicle, 10 μM Nutlin-3a, 10 μM ABT-888, or 10 μM TC-S7009 for 48 h and additionally treated with 5 μg/ml cisplatin for 24 h. Subsequently, cells were stained with the Annexin V-FITC Apoptosis Detection Kit (Sigma Aldrich, APOAF) according to manufacturer's protocol. Flow cytometry analysis was performed on a FACSCanto II flow cytometer (BD Biosciences).

SW1353 tumors = assay: Adjuvant chemotherapy in orthotopic chondrosarcoma xenograft model; format: in vivo, athymic nude mice (BALB/c nu/nu); conditions: mice, i.p., 2 mg/kg cisplatin and/or 20 mg/kg TC-S7009, twice weekly for four weeks
Description: FIG. 5G is a schematic diagram of combination chemotherapy with TC-S7009. Mice were intraperitoneally injected 8 times with DMSO, cisplatin, TC-S7009, or cisplatin plus TC-S7009, twice a week from two weeks following the orthotopic xenograft (n=5).
Mice and experimental systems. Female athymic nude mice (BALB/c nu/nu, 5 weeks old) were purchased from Daehan-Biolink Co. and housed in individually ventilated cages. Mice were maintained under pathogen-free conditions. Food and water were provided after their sterilization. For in vivo experiments, at least five mice per experimental condition were used. Animals were randomly allocated to each experimental group, and the treatment allocation was blinded. In the orthotopic injection model, SW1353 cells were trypsinized and resuspended in PBS after centrifugation. The number of cells was adjusted to 1×10^6 cells per 25 μl. For SW1353 cells that stably overexpressed eGFP or HIF-2α, cell number was adjusted to 1×10^5 cells per 25 μl. Cells were mixed with 25 μl of Geltrex (Thermo Fisher Scientific, Geltrex™ LDEV-Free Reduced Growth Factor Basement Membrane Matrix). Before the procedure, mice were anesthetized. Skin was incised using a scalpel, and a single 0.35-mm diameter hole was drilled through the cartilage of the upper right tibia with the aid of sterile H-files (MANI, 28 mm #70). Subsequently, 10 μl of cell mixture was slowly injected with a 30-gauge microsyringe needle through the hole. The hole was sealed using surgical wax, and the surgery site was extensively rinsed with sterile PBS to wash out any spilled cell mixture. As the last step of the surgical procedure, the cutaneous wound was sutured. After the chosen experimental periods, mice were sacrificed, and total hindlimbs were dissected. For lung specimens, PBS was instilled through the trachea, and all specimens were processed for histomorphometric and immunohistochemical analysis. For the adjuvant chemotherapy studies, two weeks after the orthotopic injection of chondrosarcoma cells, mice were injected intraperitoneally with or without 2 mg/kg cisplatin in the presence or absence of 20 mg/kg TC-S7009 (Tocris) dissolved in Kolliphor EL (castor oil, 10% v/v, Sigma Aldrich, C5135). Vehicle solution was composed of DMSO, PBS, and Kolliphor EL (10% v/v). Chemotherapy cocktails were administered to mice twice weekly for four weeks.

T1 sequence (Q99814 whole entry): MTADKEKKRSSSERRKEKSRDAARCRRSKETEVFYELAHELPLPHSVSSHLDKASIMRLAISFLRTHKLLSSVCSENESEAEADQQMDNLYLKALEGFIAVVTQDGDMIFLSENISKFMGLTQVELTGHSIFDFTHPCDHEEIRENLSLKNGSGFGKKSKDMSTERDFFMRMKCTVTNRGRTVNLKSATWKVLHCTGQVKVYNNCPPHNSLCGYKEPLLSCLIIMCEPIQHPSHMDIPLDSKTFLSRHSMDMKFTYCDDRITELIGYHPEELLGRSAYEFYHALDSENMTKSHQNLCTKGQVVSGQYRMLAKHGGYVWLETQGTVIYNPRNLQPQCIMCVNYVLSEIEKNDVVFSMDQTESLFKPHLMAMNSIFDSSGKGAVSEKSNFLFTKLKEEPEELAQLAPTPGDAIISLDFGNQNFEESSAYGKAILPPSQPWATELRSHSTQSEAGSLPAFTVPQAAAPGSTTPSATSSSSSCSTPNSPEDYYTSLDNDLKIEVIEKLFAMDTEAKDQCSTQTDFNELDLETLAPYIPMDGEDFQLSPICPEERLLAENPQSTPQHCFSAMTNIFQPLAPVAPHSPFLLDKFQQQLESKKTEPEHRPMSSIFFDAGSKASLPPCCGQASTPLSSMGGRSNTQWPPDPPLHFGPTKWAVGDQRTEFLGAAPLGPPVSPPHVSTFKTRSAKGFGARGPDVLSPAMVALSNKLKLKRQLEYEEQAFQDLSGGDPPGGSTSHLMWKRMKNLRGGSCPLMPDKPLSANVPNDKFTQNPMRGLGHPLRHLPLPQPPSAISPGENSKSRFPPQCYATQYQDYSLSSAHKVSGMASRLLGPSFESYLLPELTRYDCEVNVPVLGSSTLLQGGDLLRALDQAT

Row | Compound | expression of HIF-2α at the cellular level (HIF-2α [1]) | transcriptional activity of HIF-2α (HRE reporter activity) (HIF-2α [2]) | cytotoxicity / cell viability (SW1353 cells [3]) | invasive phenotypes (transwell invasion) (SW1353 cells [4]) | matrix-degrading activity (gelatin degradation) (SW1353 cells [5]) | sphere formation (SW1353 cells [6]) | clonogenicity (colony formation) (SW1353 cells [7]) | migration ability (SW1353 cells [8]) | apoptotic cells (Annexin-V and PI positive populations) (SW1353 cells [9]) | extraosseous outgrowth of primary tumor (SW1353 tumors) | pulmonary (lung) metastasis (SW1353 tumors)
1 | EPAS1 siRNA: siRNA for HIF-2α, sense and antisense SEQ ID Nos: 3 and 4 with dTdT overhang (sense ACUACGUCCUGAGUGAGAUDTDT; antisense AUCUCACUCAGGACGUAGUDTDT; dTdT overhangs, chemistry not fully specified) | effectively suppress | – | – | – | – | – | – | – | – | – | –
2 | O=[N+]([O-])c1c(Nc2cc(F)cc(Cl)c2)ccc2nonc12 [TC-S7009, N-(3-Chloro-5-fluorophenyl)-4-nitro-2,1,3-benzoxadiazol-5-amine] | – | effectively abolished; also recorded: effectively blocks | without any apparent cytotoxicity; also recorded: without affecting | effectively blocked | effectively blocked | effectively blocked | effectively blocked | without affecting | did not noticeably affect cell death | mild-to-moderate reduction | mild-to-moderate reduction
3 | N.N.[Cl][Pt][Cl] [Cisplatin, cisplatin] | – | – | – | – | – | – | – | – | mild increase | mild-to-moderate reduction | mild-to-moderate reduction
